What was measured:
[1] = Long-term stability of Temozolomide prepared by the process of the present invention, 25° C. ± 2° C., 60% ± 5% RH; assay type: physicochemical; conditions: process of the present invention, 25° C. ± 2° C., RH 60% ± 5%
Source text: The Temozolomide was stable at temperature 25 degree ° C. for at least 18 months.

[2] = Long-term stability of Temozolomide prepared by the process of the present invention, 2-8° C.; assay type: physicochemical; conditions: for AICA NMT 0.15% / Appearance (White to off-white powder) / Assay (HPLC) (98.0-102.0%) / Purity (HPLC) NLT 99.0% / Total impurities NMT 1.00% / Water content (KF), NMT 1.00%: process of the present invention, 2-8° C.
Description: The Temozolomide was stable at temperature 2-8° C. for at least 18 months.

Water content (KF), NMT 1.00% ([1]; 1 month): 0.12%
AICA NMT 0.15% ([1]; 2 months): 0.01%
Appearance (White to off-white powder) ([1]; 2 months): White
Assay (HPLC) (98.0-102.0%) ([1]; 2 months): 99.4%
Purity (HPLC) NLT 99.0% ([1]; 2 months): 100.0%
Total impurities NMT 1.00% ([1]; 2 months): 0.01%
Water content (KF), NMT 1.00% ([1]; 2 months): 0.04%
AHX NMT 0.15% ([1]; 3 months): 0.01%
AICA NMT 0.15% ([1]; 3 months): 0.11%
Appearance (White to off-white powder) ([1]; 3 months): White
Assay (HPLC) (98.0-102.0%) ([1]; 3 months): 99.4%
Purity (HPLC) NLT 99.0% ([1]; 3 months): 99.7%
Total impurities NMT 1.00% ([1]; 3 months): 0.11%
Water content (KF), NMT 1.00% ([1]; 3 months): 0.11%
Appearance (White to off-white powder) ([1]; 6 months): White
Assay (HPLC) (98.0-102.0%) ([1]; 6 months): 99.3%
Purity (HPLC) NLT 99.0% ([1]; 6 months): 100.0%
Water content (KF), NMT 1.00% ([1]; 6 months): 0.13%
AICA NMT 0.15% ([1]; 9 months): 0.02%
Appearance (White to off-white powder) ([1]; 9 months): White
Assay (HPLC) (98.0-102.0%) ([1]; 9 months): 100.8%
Purity (HPLC) NLT 99.0% ([1]; 9 months): 99.9%
Total impurities NMT 1.00% ([1]; 9 months): 0.02%
Water content (KF), NMT 1.00% ([1]; 9 months): 0.17%
AHX NMT 0.15% ([1]; 12 months): 0.01%
AICA NMT 0.15% ([1]; 12 months): 0.02%
Appearance (White to off-white powder) ([1]; 12 months): Light pink
Assay (HPLC) (98.0-102.0%) ([1]; 12 months): 99.8%
Individual unknown impurity NMT 0.10% ([1]; 12 months): 0.01%
Purity (HPLC) NLT 99.0% ([1]; 12 months): 99.9%
Total impurities NMT 1.00% ([1]; 12 months): 0.04%
Water content (KF), NMT 1.00% ([1]; 12 months): 0.04%
AICA NMT 0.15% ([1]; 18 months): 0.01%
Appearance (White to off-white powder) ([1]; 18 months): White
Assay (HPLC) (98.0-102.0%) ([1]; 18 months): 99.4%
Individual unknown impurity NMT 0.10% ([1]; 18 months): 0.01%
Purity (HPLC) NLT 99.0% ([1]; 18 months): 100.0%
Total impurities NMT 1.00% ([1]; 18 months): 0.02%
Water content (KF), NMT 1.00% ([1]; 18 months): 0.07%
Time stable ([2]; prepared by the process of the present invention, temperature 2-8° C.): at least 18 months
AICA NMT 0.15% ([2]; 0 time): 0.01%
Appearance (White to off-white powder) ([2]; 0 time): White
Assay (HPLC) (98.0-102.0%) ([2]; 0 time): 99.7%
Purity (HPLC) NLT 99.0% ([2]; 0 time): 100.0%
Total impurities NMT 1.00% ([2]; 0 time): 0.01%
Water content (KF), NMT 1.00% ([2]; 0 time): 0.09%
AICA NMT 0.15% ([2]; 1 month): 0.01%
Appearance (White to off-white powder) ([2]; 1 month): White
Assay (HPLC) (98.0-102.0%) ([2]; 1 month): 98.6%
Purity (HPLC) NLT 99.0% ([2]; 1 month): 100.0%
Total impurities NMT 1.00% ([2]; 1 month): 0.01%
Water content (KF), NMT 1.00% ([2]; 1 month): 0.07%
AICA NMT 0.15% ([2]; 2 months): 0.01%
Appearance (White to off-white powder) ([2]; 2 months): White
Assay (HPLC) (98.0-102.0%) ([2]; 2 months): 99.3%
Purity (HPLC) NLT 99.0% ([2]; 2 months): 100.0%
Total impurities NMT 1.00% ([2]; 2 months): 0.01%
Water content (KF), NMT 1.00% ([2]; 2 months): 0.04%
AICA NMT 0.15% ([2]; 3 months): 0.09%
Appearance (White to off-white powder) ([2]; 3 months): White
Assay (HPLC) (98.0-102.0%) ([2]; 3 months): 99.6%
Purity (HPLC) NLT 99.0% ([2]; 3 months): 99.7%
Total impurities NMT 1.00% ([2]; 3 months): 0.09%
Water content (KF), NMT 1.00% ([2]; 3 months): 0.09%
Appearance (White to off-white powder) ([2]; 6 months): White
Assay (HPLC) (98.0-102.0%) ([2]; 6 months): 99.9%
Purity (HPLC) NLT 99.0% ([2]; 6 months): 100.0%
Water content (KF), NMT 1.00% ([2]; 6 months): 0.12%
AICA NMT 0.15% ([2]; 9 months): 0.01%
Appearance (White to off-white powder) ([2]; 9 months): White
Assay (HPLC) (98.0-102.0%) ([2]; 9 months): 100.8%
Purity (HPLC) NLT 99.0% ([2]; 9 months): 100.0%
Total impurities NMT 1.00% ([2]; 9 months): 0.01%
Water content (KF), NMT 1.00% ([2]; 9 months): 0.15%
AICA NMT 0.15% ([2]; 12 months): 0.02%
Appearance (White to off-white powder) ([2]; 12 months): Light pink
Assay (HPLC) (98.0-102.0%) ([2]; 12 months): 99.8%
Purity (HPLC) NLT 99.0% ([2]; 12 months): 100.0%
Total impurities NMT 1.00% ([2]; 12 months): 0.02%
Water content (KF), NMT 1.00% ([2]; 12 months): 0.06%
Appearance (White to off-white powder) ([2]; 18 months): White
Assay (HPLC) (98.0-102.0%) ([2]; 18 months): 99.8%
Purity (HPLC) NLT 99.0% ([2]; 18 months): 100.0%
Water content (KF), NMT 1.00% ([2]; 18 months): 0.16%
SMILES: Cn1nnc2c(C(N)=O)ncn2c1=O [Temozolomide, 8-carbamoyl-3-methyl-imidazo[5,1-d]-1,2,3,5-tetrazin-4(3H)-one]
